Data set [1] has as its system Mycobacteroides abscessus. The data set is described as follows: Antimycobacterial activity against Mycobacterium abscessus FM0058 clinical isolate assessed as inhibition zone diameter at 12.5 ng after 3 days by disc diffusion method. It counts as functional.
Data set [2] deals with Mycobacteroides abscessus. In words: Antimycobacterial activity against Mycobacterium abscessus FM0058 clinical isolate assessed as inhibition zone diameter at 50 ng after 3 days by disc diffusion method. It counts as functional.
Data set [3] concerns Mycolicibacterium fortuitum. In words: Antimycobacterial activity against Mycobacterium fortuitum assessed as reduction in microbial growth by CLSI method. It counts as functional.
Data set [4] deals with Mycobacteroides abscessus. In words: Antimycobacterial activity against Mycobacterium abscessus ATCC 19977 assessed as inhibition zone diameter at 800 ng after 3 days by disc diffusion method. It counts as functional.
For data set [5], the system named is Mycobacteroides abscessus. The data set is described as follows: Antimycobacterial activity against Mycobacterium abscessus FM0058 clinical isolate assessed as inhibition zone diameter at 100 ng after 3 days by disc diffusion method. It counts as functional. (In agar diffusion tests the substance spreads into inoculated agar from a disc or well.)
The subject of data set [6] is Mycobacteroides abscessus. The data set is described as follows: Antimycobacterial activity against Mycobacterium abscessus ATCC 19977 assessed as inhibition zone diameter at 12.5 ng after 3 days by disc diffusion method. It counts as functional.
The subject of data set [7] is Mycobacteroides abscessus. The data set is described as follows: Antimycobacterial activity against Mycobacterium abscessus ATCC 19977 assessed as inhibition zone diameter at <3 ng after 3 days by disc diffusion method. It counts as functional, organism-based.
In data set [8] the test system is Mycobacteroides abscessus. The data set is described as follows: Antimycobacterial activity against Mycobacterium abscessus ATCC 19977 assessed as inhibition zone diameter at 400 ng after 3 days by disc diffusion method. It counts as functional.
In data set [9] the test system is Mycobacteroides abscessus. The data set is described as follows: Antimycobacterial activity against Mycobacterium abscessus FM0058 clinical isolate assessed as inhibition zone diameter at 800 ng after 3 days by disc diffusion method. It counts as functional.
The subject of data set [10] is Mycobacteroides abscessus. The data set is described as follows: Antimycobacterial activity against Mycobacterium abscessus FM0058 clinical isolate assessed as inhibition zone diameter at <3 ng after 3 days by disc diffusion method. It counts as functional, organism-based.
A short description of data set [11]: Antimycobacterial activity against Mycobacterium abscessus subsp. abscessus assessed as reduction in microbial growth by CLSI method. The note with it: Mycobacteroides abscessus. It counts as functional.
Data set [12] relates to Mycobacteroides abscessus. In words: Antimycobacterial activity against Mycobacterium abscessus ATCC 19977 assessed as inhibition zone diameter at 25 ng after 3 days by disc diffusion method. It counts as functional.
The subject of data set [13] is Mycobacteroides abscessus. The data set is described as follows: Antimycobacterial activity against Mycobacterium abscessus ATCC 19977 assessed as inhibition zone diameter at 3.125 ng after 3 days by disc diffusion method. It counts as functional.
A short description of data set [14]: Antimycobacterial activity against Mycobacterium abscessus subsp. bolletii assessed as reduction in microbial growth by CLSI method. It counts as functional. Conditions: Mycobacteroides abscessus.
Data set [15] has as its system Mycolicibacterium smegmatis. The data set is described as follows: Antimycobacterial activity against Mycobacterium smegmatis assessed as reduction in microbial growth by CLSI method. It counts as functional.
For data set [16], the system named is Mycobacteroides abscessus. In words: Antimycobacterial activity against Mycobacterium abscessus ATCC 19977 assessed as inhibition zone diameter at 1.56 ng after 3 days by disc diffusion method. It counts as functional.
The test system of data set [17] is Mycobacteroides abscessus. In words: Antimycobacterial activity against Mycobacterium abscessus FM0058 clinical isolate assessed as inhibition zone diameter at 3.125 ng after 3 days by disc diffusion method. It counts as functional.
Data set [18] concerns Mycobacteroides abscessus. In words: Antimycobacterial activity against Mycobacterium abscessus FM0058 clinical isolate assessed as inhibition zone diameter at 200 ng after 3 days by disc diffusion method. It counts as functional.
Data set [19] deals with Mycobacteroides abscessus. The data set is described as follows: Antimycobacterial activity against Mycobacterium abscessus ATCC 19977 assessed as inhibition zone diameter at 50 ng after 3 days by disc diffusion method. It counts as functional.
Data set [20] concerns Mycobacteroides abscessus. The data set is described as follows: Antimycobacterial activity against Mycobacterium abscessus FM0058 clinical isolate assessed as inhibition zone diameter at 400 ng after 3 days by disc diffusion method. It counts as functional.
Data set [21] has as its system Mycobacteroides abscessus. The data set is described as follows: Antimycobacterial activity against Mycobacterium abscessus ATCC 19977 assessed as inhibition zone diameter at 200 ng after 3 days by disc diffusion method. It counts as functional.
Data set [22] has as its system Mycobacteroides abscessus. The data set is described as follows: Antimycobacterial activity against Mycobacterium abscessus ATCC 19977 assessed as inhibition zone diameter at 6.25 ng after 3 days by disc diffusion method. It counts as functional.
The subject of data set [23] is Mycobacteroides abscessus. The data set is described as follows: Antimycobacterial activity against Mycobacterium abscessus FM0058 clinical isolate assessed as inhibition zone diameter at 25 ng after 3 days by disc diffusion method. It counts as functional.
The test system of another data set is Mycobacteroides chelonae. The data set is described as follows: Antimycobacterial activity against Mycobacterium chelonae assessed as reduction in microbial growth by CLSI method. It counts as functional.
For data set [24], the system named is Mycobacteroides abscessus. The data set is described as follows: Antimycobacterial activity against Mycobacterium abscessus ATCC 19977 assessed as inhibition zone diameter at 100 ng after 3 days by disc diffusion method. It counts as functional.
The subject of data set [25] is Mycobacteroides abscessus. In words: Antimycobacterial activity against Mycobacterium abscessus FM0058 clinical isolate assessed as inhibition zone diameter at 1.56 ng after 3 days by disc diffusion method. It counts as functional.
For data set [26], the system named is Mycobacteroides abscessus. The data set is described as follows: Antimycobacterial activity against Mycobacterium abscessus FM0058 clinical isolate assessed as inhibition zone diameter at 6.25 ng after 3 days by disc diffusion method. It counts as functional.
The nature of data set [27]: Antimycobacterial activity against Mycobacterium abscessus subsp. massiliense assessed as reduction in microbial growth by CLSI method. It counts as functional. The note with it: Mycobacteroides abscessus.
Data set [28] is described as follows: Drug metabolism in Mycobacterium abscessus ATCC 19977 assessed as adenine ribosylated diphosphate derivative formation by LC/MS analysis. It counts as ADME. The note with it: Mycobacteroides abscessus.

The results in this text go back to ChEMBL document CHEMBL4433259, “Rifamycin derivatives active against pathogenic rapidly-growing mycobacteria” (Bioorg Med Chem Lett, 2019).

Structures are written as SMILES. The source made the active and inactive calls.

As to `CO[C@H]1/C=C/O[C@@]2(C)Oc3c(C)c(O)c4c(c3C2=O)C(=O)C(N2CCOCC2)=C(NC(=O)/C(C)=C\C=C\[C@H](C)[C@H](O)[C@@H](C)[C@@H](O)[C@@H](C)[C@H](OC(=O)NCc2cc(-c3ccccn3)no2)[C@@H]1C)C4=O`, the “diameter of the inhibition zone (DIZ)” value in [1] was 0 mm; in data set [2] it was 9 mm; in [4] it was 27 mm; in data set [5], 20 mm; in data set [6], 0 mm; in data set [8] it was 24 mm. For the same compound, the “diameter of the inhibition zone (DIZ)” value in [9] is on record as over 30 mm; in [12] it was 0 mm; in [13] it was 0 mm; in data set [16], 0 mm; in data set [17] it was 0 mm; in data set [18], 25 mm. The “diameter of the inhibition zone (DIZ)” value came out at 14 mm in data set [19]; 30 mm in data set [20]; 20 mm in data set [21]; 0 mm in [22]; 0 mm in data set [23]; 16 mm in data set [24]. Besides, the “diameter of the inhibition zone (DIZ)” value in [25] and in [26] was 0 mm each time. Besides, the MIC came out at 1 µg/mL in [3]; 8 µg/mL in data set [11]; 8 µg/mL in data set [14]; 0.5 µg/mL in data set [15]; 64 µg/mL in the data set on Mycobacteroides chelonae; 8 µg/mL in data set [27]. The “diameter of the inhibition zone (DIZ)” value in data set [7] and in [10] was “inactive” each time.
For `CO[C@H]1/C=C/O[C@@]2(C)Oc3c(C)c(O)c4c(O)c(c(/C=N/N5CCN(C)CC5)c(O)c4c3C2=O)NC(=O)/C(C)=C\C=C\[C@H](C)[C@H](O)[C@@H](C)[C@@H](O)[C@@H](C)[C@H](OC(C)=O)[C@@H]1C` [RIFAMPIN], the “diameter of the inhibition zone (DIZ)” value in data set [1], in data set [2], in data set [4], in data set [5], in data set [6] and in data set [8] was 0 mm throughout. For the same compound, the “diameter of the inhibition zone (DIZ)” value in data set [9], in data set [12], in data set [13], in data set [16], in [17] and in data set [18] was 0 mm throughout. Further, the “diameter of the inhibition zone (DIZ)” value in data set [19], in [20], in data set [21], in data set [22], in data set [23] and in data set [24] was 0 mm throughout. For the same compound, the “diameter of the inhibition zone (DIZ)” value in [25] and in [26] was 0 mm in each case. Further, the MIC in [3] is over 64 µg/mL; in data set [11], over 64 µg/mL; in [14], over 64 µg/mL; in [15], 32 µg/mL; in the data set on Mycobacteroides chelonae, over 64 µg/mL; in [27] it was over 64 µg/mL. Further, the “diameter of the inhibition zone (DIZ)” value in data set [7] and in data set [10] was “inactive” each time. Besides, in [28], the Drug metabolism result is recorded as “Metabolite_Notdetected”.
On to `COc1ccccc1-c1cc(CNC(=O)O[C@H]2[C@H](C)[C@H](O)[C@H](C)[C@@H](O)[C@@H](C)/C=C/C=C(/C)C(=O)NC3=C(N4CCOCC4)C(=O)c4c(c(O)c(C)c5c4C(=O)[C@@](C)(O/C=C/[C@H](OC)[C@H]2C)O5)C3=O)on1`, for which the MIC is 0.25 µg/mL in data set [3]; 64 µg/mL in data set [11]; 16 µg/mL in data set [14]; 0.12 µg/mL in data set [15]; 64 µg/mL in the data set with Mycobacteroides chelonae; 64 µg/mL in [27].
Consider `COc1ccc(CNC(=O)O[C@H]2[C@H](C)[C@H](O)[C@H](C)[C@@H](O)[C@@H](C)/C=C/C=C(/C)C(=O)NC3=C(N4CCOCC4)C(=O)c4c(c(O)c(C)c5c4C(=O)[C@@](C)(O/C=C/[C@H](OC)[C@H]2C)O5)C3=O)cc1`, for which the MIC was 1 µg/mL in [3]; 64 µg/mL in data set [11]; 16 µg/mL in data set [14]; 0.06 µg/mL in [15]; over 64 µg/mL in the data set with Mycobacteroides chelonae; 8 µg/mL in data set [27].
For `CO[C@H]1/C=C/O[C@@]2(C)Oc3c(C)c(O)c4c(c3C2=O)C(=O)C(N2CCOCC2)=C(NC(=O)/C(C)=C\C=C\[C@H](C)[C@H](O)[C@@H](C)[C@@H](O)[C@@H](C)[C@H](OC(=O)NCc2cc(-c3ccccc3)no2)[C@@H]1C)C4=O`, the “diameter of the inhibition zone (DIZ)” value in data set [1] turned out to be 0 mm; in data set [2], 13 mm; in data set [4], 24 mm; in [5], 17 mm; in data set [6], 0 mm; in [8], 20 mm. In addition, the “diameter of the inhibition zone (DIZ)” value in [9] was over 30 mm; in data set [12], 0 mm; in [13], 0 mm; in data set [16], 0 mm; in data set [17] it was 0 mm; in data set [18], 21 mm. The “diameter of the inhibition zone (DIZ)” value in [19] is recorded as 7 mm; in data set [20], 26 mm; in data set [21] it was 16 mm; in data set [22], 0 mm; in data set [23] it was 7 mm; in [24], 12 mm. Also, the “diameter of the inhibition zone (DIZ)” value in data set [25] and in data set [26] was 0 mm in each case. Moreover, the MIC in data set [3] was 0.0625 µg/mL; in data set [11] it was 0.5 µg/mL; in data set [14], 0.125 µg/mL; with Mycobacteroides chelonae, 0.5 µg/mL; in data set [27], 0.5 µg/mL. For the same compound, the “diameter of the inhibition zone (DIZ)” value in data set [7] and in data set [10] was “inactive” throughout.
As to `CO[C@H]1/C=C/O[C@@]2(C)Oc3c(C)c(O)c4c(c3C2=O)C(=O)C(N2CCOCC2)=C(NC(=O)/C(C)=C\C=C\[C@H](C)[C@H](O)[C@@H](C)[C@@H](O)[C@@H](C)[C@H](OC(=O)NCCN(C(C)C)C(C)C)[C@@H]1C)C4=O`, the MIC amounted to 8 µg/mL in data set [3]; 0.5 µg/mL in data set [11]; 0.25 µg/mL in [14]; 1 µg/mL in the data set with Mycobacteroides chelonae; 1 µg/mL in data set [27].
Consider `CO[C@H]1/C=C/O[C@@]2(C)Oc3c(C)c(O)c4c(c3C2=O)C(=O)C(N2CCOCC2)=C(NC(=O)/C(C)=C\C=C\[C@H](C)[C@H](O)[C@@H](C)[C@@H](O)[C@@H](C)[C@H](OC(=O)NCc2ccc(N(C)C)cc2)[C@@H]1C)C4=O`, for which the MIC in data set [3] turned out to be 1 µg/mL; in data set [11], 8 µg/mL; in data set [14], 8 µg/mL; in [15] it was 0.06 µg/mL; in the data set on Mycobacteroides chelonae it was 16 µg/mL; in data set [27] it was 8 µg/mL.

A word on the MIC: it is the smallest concentration in the dilution series that meets the test's criterion for growth inhibition.
